The structures appear in SMILES notation. The source made the active and inactive calls. No rule for the calls is given here.

The values that follow come from PubChem BioAssay AID624258 (Broad Institute, 2012).

A short description of the first test: Yeast SKN7 toxicity growth rescue counterscreen, Saccharomyces cerevisiae, plate reader, dose confirmatory (AID 624258).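 Also: growth read after three days of incubation at 30 °C; 0% = median of neutral control wells.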 The settings on record: S. cerevisiae SKN7-toxicity growth rescue, plate reader; at 2.1 µM (top of the series). On the technique in general: The purpose of a counterscreen is to sort out artefacts and off-target activity.
For the molecule `C=C1C(=O)C23CCC4C(C)(C(=O)OC)CCCC4(C)C2CCC1(O)C3` (stereo not drawn), the growth rescue activity is -9.52% (inactive).

On to `CCc1ccc(C(C)NC(=S)NC2CCCCC2)cc1` (stereo not drawn), for which the growth rescue activity was -19.4% (inactive).

Staying with this test, now noted: S. cerevisiae SKN7-toxicity growth rescue, plate reader; at 6.8 µM (top of the series).
As to `Cc1ccc(NC(=S)Nc2cccc3cnccc23)cc1C`, the growth rescue activity is -25.1% (inactive).

On to `COc1cc2c(cc1OC)C(C)N(C(=O)c1cccc([N+](=O)[O-])c1)CC2` (stereo not drawn), for which the growth rescue activity was -17.8% (inactive).

As for `CC(C)(C)C(=O)N1CCN(c2ccc([N+](=O)[O-])cc2Cl)CC1`, the growth rescue activity is -14.7% (inactive).

On to `CC(C)NC(=O)NC(=O)COC(=O)c1ccc([N+](=O)[O-])cc1Cl`, for which the growth rescue activity was -6.28% (inactive).

As for `Cc1cc(C(=O)COC(=O)Cc2n[nH]c(=O)c3ccccc23)c(C)n1-c1cccc(C(F)(F)F)c1`, the growth rescue activity is -21.5% (inactive).

The test is the same for the next values; noted with them: S. cerevisiae SKN7-toxicity growth rescue, plate reader; at 19.5 µM (top of the series).
With `Cc1ccccc1C(=O)NNC(=S)NC(=O)c1ccc(Cl)cc1Cl`, the growth rescue activity is -23.2% (inactive).

As for `O=C(c1ccc(-c2ccccc2)cc1)C1CCCN(C(=O)c2cncs2)C1` (stereo not drawn), the growth rescue activity is -59.8% (inactive).

In the case of `O=C1C(=O)c2ccccc2C(O)=C1CC=C(Cl)Cl`, the growth rescue activity is -94.4% (inactive).

As for `Cc1ccc(S(=O)(=O)/N=C2/C=C(Sc3ncn[nH]3)C(=O)c3ccccc32)cc1`, the growth rescue activity is 20.8% (inactive).

In the case of `CN(Cc1cccc(F)c1)C(=O)c1ccc(S(=O)(=O)N2CCCCCC2)cc1`, the growth rescue activity is -8.45% (inactive).

Take `O=C(Nc1nnc(-c2cccs2)o1)c1cccc(Oc2ccccc2)c1`: the growth rescue activity was -6.4% (inactive).

Consider `O=C(NOC(=O)c1ccccc1)c1ccccc1`, for which the growth rescue activity was -77.5% (inactive).

Take `CC1(C)C=Cc2c(ccc3c2OC[C@@H](c2ccc(O)cc2O)C3)O1`: the growth rescue activity was -92.6% (inactive).

In the case of `CC(C)C(=O)NC(c1cccc([N+](=O)[O-])c1)c1ccc2cccnc2c1O` (stereo not drawn), the growth rescue activity is -62.7% (inactive).

Take `Cc1cc2nc(-c3ccc4c(c3)CCC4)ccn2n1`: the growth rescue activity was -10.6% (inactive).

For `O=[N+]([O-])c1ccc(/C=N/NC(=S)Nc2ccc(Cl)cc2Cl)s1`, the growth rescue activity was -44% (inactive).

Regarding `CN(C)c1ccc(NC2=C(Cl)C(=O)c3ccccc3C2=O)cc1`, the growth rescue activity is -12.8% (inactive).

As for `C[C@]12CC[C@H](O)CC1=CCC1C2CC[C@@]2(C)C1CC[C@@H]2NC(=O)[C@@H](N)Cc1ccccc1` (stereo partly drawn), the growth rescue activity was 15.7% (inactive).

With `O=C(c1ccc(-c2ccccc2)c(F)c1)C1CCCN(C(=O)c2cncs2)C1` (stereo not drawn), the growth rescue activity is -45.2% (inactive).

`CCOC(=O)N1C(=O)C2(CCCCC2)N(c2ccccc2Cl)C1=S`: the growth rescue activity was -49.5% (inactive).

As for `O=C(CCNS(=O)(=O)c1ccc(Br)s1)N1CCN(c2ccccc2)CC1`, the growth rescue activity is -25.4% (inactive).

Turning to `Cc1cccc(Nc2nc(-c3ccccn3)cs2)n1`, the growth rescue activity is -59.7% (inactive).

As for `COC(=O)c1cc(C#N)c(Oc2ccc(F)cc2)nc1C`, the growth rescue activity is -11.6% (inactive).

For `CCC1=NN(C(=O)c2cccc(Br)c2)C(O)(c2ccc(Br)cc2)C1` (stereo not drawn), the growth rescue activity is -2.16% (inactive).

On to `CC12CCC(O)CC1=CCC1C2CCC2(C)C3=NN=CC3CC12` (stereo not drawn), for which the growth rescue activity was -53.7% (inactive).

Regarding `[O-][n+]1cccc2c(Br)cc(Br)c(O)c21`, the growth rescue activity is -82.7% (inactive).

For the molecule `N#Cc1c(-c2cccc([N+](=O)[O-])c2)nc2n(c1=O)CCS2`, the growth rescue activity was 1.05% (inactive).

With `O=C(N1CCN(c2ccccc2)CC1)C1(S(=O)(=O)c2ccc(Cl)cc2)CC1`, the growth rescue activity was 21.3% (inactive).

For the molecule `O=C(NC(=S)N(CCc1ccccc1)CCc1ccccc1)c1ccco1`, the growth rescue activity was -9.38% (inactive).

For the molecule `CCCCCCn1c(=O)c(C(=O)Nc2ncccc2C)c(O)c2ccccc21`, the growth rescue activity was -12.8% (inactive).

In the case of `CCCOc1ccc2ccccc2c1/C=C1\SC(=O)NC1=O`, the growth rescue activity was -39.3% (inactive).

For the molecule `O=c1c(O)c(-c2ccccc2)oc2ccccc12`, the growth rescue activity was -14.5% (inactive).

With `Cn1ccsc1=NC(=O)c1ccc([N+](=O)[O-])o1`, the growth rescue activity was -53.8% (inactive).

Consider `CCN(CC)C(=O)C1CCCc2c1[nH]c1ccc(Cl)cc21` (stereo not drawn), for which the growth rescue activity is -45% (inactive).

As for `C=CCNC(=S)N1CCC(Cc2ccccc2)CC1`, the growth rescue activity was -41% (inactive).

Turning to `O=c1[nH]c2c(c(=O)[nH]1)OCN(Cc1ccccc1)C2`, the growth rescue activity was -23.4% (inactive).

In the case of `CC1=CC(C)(C)N(S(=O)(=O)c2ccc(C)cc2)c2ccc(C)cc21`, the growth rescue activity was -55.9% (inactive).

Regarding `CCOC(=O)c1ccc(NC(=S)N(Cc2cccnc2)Cc2ccco2)cc1`, the growth rescue activity is -37.1% (inactive).

With `CC(CNC(=O)COc1ccccc1)OC(=O)Nc1ccc(Cl)c(Cl)c1` (stereo not drawn), the growth rescue activity is -93.2% (inactive).

`C=CCn1c(-c2cc(-c3ccc(C)cc3)nc3ccccc23)n[nH]c1=S`: the growth rescue activity is 0.203% (inactive).

For `CC1(C)C(C=C(Cl)Cl)C1C(=O)N1CCN(c2ccccc2)CC1` (stereo not drawn), the growth rescue activity was 6.49% (inactive).

`COc1ccc(C(=O)On2c(-c3ccc(Br)cc3)nc3ccccc3c2=O)cc1`: the growth rescue activity is -5.26% (inactive).

With `CCOc1ccc(-c2[nH]ncc2Oc2cccc(OC)c2)c(O)c1`, the growth rescue activity is -63.7% (inactive).

On to `C=CCOC(Cn1ccnc1)c1ccc(Cl)cc1Cl` (stereo not drawn), for which the growth rescue activity is -40.8% (inactive).

In the case of `Cc1cc(Nc2ccccc2)nn1C(=O)c1ccccc1`, the growth rescue activity is 7.09% (inactive).

As for `COc1ccc(N(C(=O)c2ccncc2)S(=O)(=O)c2ccccc2)cc1`, the growth rescue activity was -61.4% (inactive).

In the case of `CN(Cc1ccc(Cl)s1)C(=O)CCl`, the growth rescue activity was 19.3% (inactive).

Consider `O=C(Oc1ccccc1C(=S)N1CCOCC1)c1ccc([N+](=O)[O-])cc1[N+](=O)[O-]`, for which the growth rescue activity was -8.27% (inactive).

`Cc1cccc(/C=N/NC(=O)C(C)Nc2cccc3ccccc23)n1` (stereo not drawn): the growth rescue activity was -1.71% (inactive).

Turning to `Cn1nc(C(F)(F)F)c(C#N)c1N1CCN(c2ccc(F)cc2)CC1`, the growth rescue activity was -49.6% (inactive).

Take `CC1(C)CC(=O)C(N=Nc2ccc3ncsc3c2)=C(O)C1`: the growth rescue activity is 0.603% (inactive).

For the molecule `CCCCCCCCCCSc1n[nH]c(N)n1`, the growth rescue activity is -93.1% (inactive).

As to `O=C(N/N=C/c1ccc[nH]1)c1sc2ccccc2c1Cl`, the growth rescue activity is -72.2% (inactive).

On to `CC(C)=CCc1c(O)ccc(C(=O)Cc2ccccc2)c1O`, for which the growth rescue activity was -92.2% (inactive).

`CCn1nc(/C=C/c2ccccc2)nc2c(=O)n(C)c(=O)nc1-2`: the growth rescue activity was -44.4% (inactive).

Regarding `CCC(=O)NC(c1ccco1)c1cc(Cl)c2cccnc2c1O` (stereo not drawn), the growth rescue activity is -49.4% (inactive).

In the case of `COc1cccc(C(=O)Nc2sc(C(C)C)cc2C(N)=O)c1OC`, the growth rescue activity is 93.8% (inactive).

For the molecule `CC(=O)Oc1ccc(N2C(=O)C3C4C=CC(O4)C3C2=O)cc1` (stereo not drawn), the growth rescue activity was 16.1% (inactive).

Take `CC(C)(C)C(O)C(Cc1ccccc1Cl)n1cncn1` (stereo not drawn): the growth rescue activity is -53.7% (inactive).

As for `CCn1c2ccc(C)cc2c2nc3cc(C(=O)O)ccc3nc21`, the growth rescue activity is 18.7% (inactive).

`O=C(OCC(=O)C12CC3CC(CC(C3)C1)C2)c1ccc(O)cc1`: the growth rescue activity was -10.8% (inactive).

`O=S(=O)(c1ccc(Oc2ccc(Br)cc2)cc1)N1CCOCC1`: the growth rescue activity is 9.57% (inactive).

As for `O=C(COC(=O)c1ccc([N+](=O)[O-])o1)NC12CC3CC(CC(C3)C1)C2`, the growth rescue activity is -18.4% (inactive).

For `Cc1cc(/C=C2\SC(=S)N(C)C2=O)c(C)n1-c1ccc(O)cc1`, the growth rescue activity was -39.6% (inactive).

Regarding `COc1ccc(-c2oc3ccccc3c2C#Cc2cncn2C)cc1`, the growth rescue activity was -49.1% (inactive).

With `CCC(C)c1ccc(NC(=S)NCCn2cc(Br)cn2)cc1` (stereo not drawn), the growth rescue activity was -33.1% (inactive).

As for `COc1ccc(N(C)S(=O)(=O)c2ccc(Cl)c(C(=O)NNC(=O)c3ccccc3O)c2)cc1`, the growth rescue activity was 4.7% (inactive).

On to `CCCn1c(=O)c(C(=O)NCc2ccc(OC)c(OC)c2)c(O)c2ccccc21`, for which the growth rescue activity is -19.9% (inactive).

For the molecule `Nc1cc2c3ccccc3ccc2c2ccccc12`, the growth rescue activity is -51.9% (inactive).

As to `CCc1ccc(S(=O)(=O)N(C(=O)c2ccncc2)c2ccc(OC(=O)c3ccncc3)cc2)cc1`, the growth rescue activity is -42.7% (inactive).

Regarding `CC(C)(C)OC(=O)N1CCC(c2cc(-c3cccs3)n[nH]2)CC1`, the growth rescue activity was -58.6% (inactive).

With `Cc1cc(N2CCN(c3ccccc3)CC2)nc(-c2ccccc2O)n1`, the growth rescue activity is -42.6% (inactive).

As for `CC(=O)/C=C(\C)Nc1ccccc1O`, the growth rescue activity is -6.16% (inactive).

`CN(c1ccccc1)c1nc(N2CCCC2)nc(-n2ccnc2)n1`: the growth rescue activity was -4.75% (inactive).

For the molecule `O=C1c2cccc3cc([N+](=O)[O-])cc(c23)C(=O)N1CC1CCCO1` (stereo not drawn), the growth rescue activity is 23.2% (inactive).

Turning to `Nc1nc2sc3c(c2c(=O)s1)CCCC3`, the growth rescue activity is -93.9% (inactive).

In the case of `c1ccc(CSc2ccc(-c3ccccn3)nn2)nc1`, the growth rescue activity is -28% (inactive).

Take `O=C1C(Nc2ccccc2)=C/C(=N/S(=O)(=O)c2cccs2)c2ccccc21`: the growth rescue activity is -8.54% (inactive).

For `CCCCC(=O)NC(=S)NNC(=O)CCc1ccccc1`, the growth rescue activity is -22.9% (inactive).

As to `CCOC(=O)c1c2c(n(-c3ccc(OC)cc3)c1C)C(=O)C(=O)c1ccccc1-2`, the growth rescue activity was -68% (inactive).

Turning to `O=C(NCc1ccccc1)c1ccc2nccnc2c1`, the growth rescue activity is 17.6% (inactive).
